From patent US11357769B2, “Drug combinations for reducing cell viability and/or cell proliferation” (Eisai R&D Management Co., Ltd., priority 2016, dated 2022)

Test system: Hep3B xenograft
Experiment: Antitumor activity in Hep3B xenograft model of hepatocellular carcinoma
Format: in vivo, mice
Conditions: 17 days
Experimental: The human hepatocellular cancer cell line Hep3B was cultured in RPMI1640 medium containing 10% fetal bovine serum at 37° C. in a 5% CO2 atmosphere and kept in exponential growth phase. […] When the mean tumor volume (TV) reached approximately 170 mm^3 (10 days after implantation), 56 mice were selected based on their TVs, and were sorted into 7 treatment groups with 8 animals per group. […] Body weights were measured daily and tumor measurements were performed twice weekly.
[formula] where Day X is any day of measurement.
The anti-tumor effects of the treatment, Partial (PR) and complete regression (CR), stable (SD) and progressive (PD) disease were defined by the H3 Xenograft Model Response Criteria (Appendix 4). […] The relative body weight changes were analyzed by two way ANOVA followed by Dunnett's post hoc.

C=CC(=O)Nc1cc(N2CCN(CC)CC2)ccc1Nc1cc(N(C)C(=O)Nc2c(Cl)c(OC)cc(OC)c2Cl)ncn1 [Compound 1, N-(2-((6-(3-(2,6-dichloro-3,5-dimethoxyphenyl)-1-methylureido)pyrimidin-4-yl)amino)-5-(4-ethylpiperazin-1-yl)phenyl)acrylamide]
Tumor Growth Inhibition (TGI) (Compound 1 single agent 100 mg/kg PO): 16% | Tumor Growth Inhibition (TGI) (Compound 1 single agent 300 mg/kg PO, p<0.05 vs vehicle): 64%
